Data reported in ChEMBL document CHEMBL5365510, “Discovery of Novel, Thienopyridine-Based Tyrosine Kinase Inhibitors Targeting Tumorigenic RON Splice Variants” (ACS Med Chem Lett, 2023).
The source made the active and inactive calls. The rule behind the calls is not given here.

Key:
[1] = Clearance in Sprague-Dawley rat at 1 mg/kg, iv measured after 24 hrs by LC/MS/MS analysis; assay type: ADME, organism-based; settings: in vivo
NIH3T3 [2] = assay: Inhibition of RON splicing variant 155 (unknown origin) transfected in […] cells assessed as reduction in RON phosphorylation at 100 uM incubated for 2 hrs by Western blotting analysis; assay type: cell-based
[3] = Antiproliferative activity against human SW480E cells harbouring KRAS G12V mutant and RON delta 160 assessed as cell growth inhibition measured after 72 hrs by MTS assay; assay type: functional
KM12C [4] = assay: Antitumor activity against human KM12-C cells harbouring RON delta 160 xenografted in BALB/c mouse assessed as tumor growth inhibition at 1 mg/kg, po qd measured after 14 days; assay type: functional; settings: 336 h, time 14 day, read-out: TGI
[5] = Half life in Sprague-Dawley rat at 1 mg/kg, iv measured after 24 hrs by LC/MS/MS analysis; assay type: ADME, organism-based; settings: in vivo
KM12C [6] = assay: Antitumor activity against human KM12-C cells harbouring RON delta 160 xenografted in BALB/c mouse assessed as tumor growth inhibition at 10 mg/kg, po qd measured after 14 days; assay type: functional; settings: 336 h, time 14 day, read-out: TGI
[7] = Metabolic stability in human liver microsomes assessed as parent compound remaining after 30 mins in presence of NADPH by LC/MS/MS analysis; assay type: ADME, Microsome; settings: read-out: Stability
[8] = AUC(0 to infinity) in Sprague-Dawley rat at 5 mg/kg, po measured after 24 hrs by LC/MS/MS analysis; assay type: ADME, organism-based; design: dose 5 mg/kg, time 24 hrs, route po; settings: in vivo
HCT-15 = assay: Antiproliferative activity against human HCT-15 cells harbouring KRAS G13D mutant and RON delta 160 assessed as cell growth inhibition measured after 72 hrs by MTS assay; assay type: functional
NIH3T3 [9] = assay: Inhibition of RON splicing variant 165 (unknown origin) transfected in […] cells assessed as reduction in RON phosphorylation at 100 uM incubated for 2 hrs by Western blotting analysis; assay type: cell-based
SW-620 [10] = assay: Antiproliferative activity against human SW620 cells harbouring KRAS G12 V mutant and RON delta 155 assessed as cell growth inhibition measured after 72 hrs by MTS assay; assay type: functional
CAPAN-1 = assay: Antiproliferative activity against human CAPAN-1 cells harbouring KRAS G12V mutant and RON delta 155 assessed as cell growth inhibition measured after 72 hrs by MTS assay; assay type: functional
[11] = Tmax in Sprague-Dawley rat at 5 mg/kg, po measured after 24 hrs by LC/MS/MS analysis; assay type: ADME, organism-based; settings: in vivo
HT-29 [12] = assay: Antiproliferative activity against human HT-29 cells harbouring wild-type KRAS and RON delta 160 assessed as cell death rate at 5 uM measured after 48 hrs by trypan blue exclusion assay relative to control; assay type: functional
[13] = AUC(0 to infinity) in Sprague-Dawley rat at 1 mg/kg, iv measured after 24 hrs by LC/MS/MS analysis; assay type: ADME, organism-based; design: time 24 hrs, dose 1 mg/kg, route iv; settings: in vivo
KM12C [14] = assay: Antiproliferative activity against human KM12-C cells harbouring wild-type KRAS and RON delta 160 assessed as cell growth inhibition measured after 72 hrs by MTS assay; assay type: functional
NIH3T3 [15] = assay: Inhibition of RON splicing variant 160 (unknown origin) transfected in […] cells assessed as reduction in RON phosphorylation at 100 uM incubated for 2 hrs by Western blotting analysis; assay type: cell-based
SW480 = assay: Antiproliferative activity against human SW480 cells harbouring KRAS G12V mutant and RON delta 155 assessed as cell growth inhibition measured after 72 hrs by MTS assay; assay type: functional
KM12C [16] = assay: Antitumor activity against human KM12-C cells harbouring RON delta 160 xenografted in BALB/c mouse assessed as tumor growth inhibition at 3 mg/kg, po qd measured after 14 days; assay type: functional; settings: 336 h, time 14 day, read-out: TGI
[17] = Volume of distribution at steady state in Sprague-Dawley rat at 1 mg/kg, iv measured after 24 hrs by LC/MS/MS analysis; assay type: ADME, organism-based; settings: in vivo, read-out: Vdss
SW-620 [18] = assay: Antitumor activity against human SW620 cells harbouring RON delta 155 xenografted in BALB/c mouse assessed as tumor growth inhibition at 30 mg/kg, po qd measured after 28 days; assay type: functional; settings: SW-620, 672 h, time 28 day, read-out: TGI
MIA PaCa-2 = assay: Antiproliferative activity against human MIA PaCa-2 cells harbouring KRAS G12C mutant and RON delta 160 assessed as cell growth inhibition measured after 72 hrs by MTS assay; assay type: functional
KM12C [19] = assay: Antiproliferative activity against human KM12-C cells harbouring wild-type KRAS and RON delta 160 assessed as cell death rate at 5 uM measured after 48 hrs by trypan blue exclusion assay relative to control; assay type: functional
[20] = Antitumor activity against patient derived Colorectal cancer cell harbouring wild-type KRAS and RON delta 160 xenografted in BALB/c mouse assessed as tumor growth inhibition at 10 mg/kg, po qd measured after 28 days; assay type: functional; settings: Homo sapiens, 672 h, time 28 day, read-out: TGI
[21] = Oral bioavailability in Sprague-Dawley rat at 5 mg/kg measured after 24 hrs by LC/MS/MS analysis; assay type: ADME, organism-based; settings: in vivo
[22] = Half life in Sprague-Dawley rat at 5 mg/kg, po measured after 24 hrs by LC/MS/MS analysis; assay type: ADME, organism-based; settings: in vivo
LS-411N = assay: Antiproliferative activity against human LS-411N cells harbouring wild-type KRAS and RON delta 155 assessed as cell growth inhibition measured after 72 hrs by MTS assay; assay type: functional
SW1417 = assay: Antiproliferative activity against human SW1417 cells harbouring wild-type KRAS and RON delta 155 assessed as cell growth inhibition measured after 72 hrs by MTS assay; assay type: functional
PANC-03-27 = assay: Antiproliferative activity against human Panc 03.27 cells harbouring KRAS G12V mutant and RON delta 155 assessed as cell growth inhibition measured after 72 hrs by MTS assay; assay type: functional
KM12C [23] = assay: Antitumor activity against human KM12-C cells harbouring RON delta 160 xenografted in BALB/c mouse assessed as tumor growth inhibition at 30 mg/kg, po qd measured after 14 days; assay type: functional; settings: 336 h, time 14 day, read-out: TGI
T84 = assay: Antitumor activity against human T84 cells harbouring RON delta 165 xenografted in BALB/c mouse assessed as tumor growth inhibition at 30 mg/kg, po qd measured after 34 days; assay type: functional; settings: T84, 816 h, time 34 day, read-out: TGI
[24] = Cmax in Sprague-Dawley rat at 5 mg/kg, po measured after 24 hrs by LC/MS/MS analysis; assay type: ADME, organism-based; design: dose 5 mg/kg, time 24 hrs, route po; settings: in vivo
[25] = Antiproliferative activity against human SNU-1047 cells harbouring wild-type KRAS and RON delta 155 assessed as cell growth inhibition measured after 72 hrs by MTS assay; assay type: functional
PANC-1 = assay: Antiproliferative activity against human PANC-1 cells harbouring KRAS G12D mutant and RON delta 155 assessed as cell growth inhibition measured after 72 hrs by MTS assay; assay type: functional
ASPC1 = assay: Antiproliferative activity against human ASPC1 cells harbouring KRAS G12D mutant and RON delta 165 assessed as cell growth inhibition measured after 72 hrs by MTS assay; assay type: functional
HT-29 [26] = assay: Antiproliferative activity against human HT-29 cells harbouring wild-type KRAS and RON delta 160 assessed as cell growth inhibition measured after 72 hrs by MTS assay; assay type: functional
[27] = molecular target: T1, Macrophage-stimulating protein receptor (Homo sapiens, UniProt Q04912); assay: Inhibition of RON (unknown origin)
[28] = molecular target: Hepatocyte growth factor receptor (Homo sapiens, UniProt P08581); assay: Inhibition of c-Met (unknown origin)
[29] = molecular target: T1, Macrophage-stimulating protein receptor; assay: Inhibition of N-terminal GST-tagged human recombinant RON (979 to 1400(end) residues) expressed in Sf21 cells incubated for 20 mins followed by ATP addition measured after 60 mins by TR-FRET based LanthaScreen kinase assay

Hepatocyte growth factor receptor, sequence (P08581 whole entry): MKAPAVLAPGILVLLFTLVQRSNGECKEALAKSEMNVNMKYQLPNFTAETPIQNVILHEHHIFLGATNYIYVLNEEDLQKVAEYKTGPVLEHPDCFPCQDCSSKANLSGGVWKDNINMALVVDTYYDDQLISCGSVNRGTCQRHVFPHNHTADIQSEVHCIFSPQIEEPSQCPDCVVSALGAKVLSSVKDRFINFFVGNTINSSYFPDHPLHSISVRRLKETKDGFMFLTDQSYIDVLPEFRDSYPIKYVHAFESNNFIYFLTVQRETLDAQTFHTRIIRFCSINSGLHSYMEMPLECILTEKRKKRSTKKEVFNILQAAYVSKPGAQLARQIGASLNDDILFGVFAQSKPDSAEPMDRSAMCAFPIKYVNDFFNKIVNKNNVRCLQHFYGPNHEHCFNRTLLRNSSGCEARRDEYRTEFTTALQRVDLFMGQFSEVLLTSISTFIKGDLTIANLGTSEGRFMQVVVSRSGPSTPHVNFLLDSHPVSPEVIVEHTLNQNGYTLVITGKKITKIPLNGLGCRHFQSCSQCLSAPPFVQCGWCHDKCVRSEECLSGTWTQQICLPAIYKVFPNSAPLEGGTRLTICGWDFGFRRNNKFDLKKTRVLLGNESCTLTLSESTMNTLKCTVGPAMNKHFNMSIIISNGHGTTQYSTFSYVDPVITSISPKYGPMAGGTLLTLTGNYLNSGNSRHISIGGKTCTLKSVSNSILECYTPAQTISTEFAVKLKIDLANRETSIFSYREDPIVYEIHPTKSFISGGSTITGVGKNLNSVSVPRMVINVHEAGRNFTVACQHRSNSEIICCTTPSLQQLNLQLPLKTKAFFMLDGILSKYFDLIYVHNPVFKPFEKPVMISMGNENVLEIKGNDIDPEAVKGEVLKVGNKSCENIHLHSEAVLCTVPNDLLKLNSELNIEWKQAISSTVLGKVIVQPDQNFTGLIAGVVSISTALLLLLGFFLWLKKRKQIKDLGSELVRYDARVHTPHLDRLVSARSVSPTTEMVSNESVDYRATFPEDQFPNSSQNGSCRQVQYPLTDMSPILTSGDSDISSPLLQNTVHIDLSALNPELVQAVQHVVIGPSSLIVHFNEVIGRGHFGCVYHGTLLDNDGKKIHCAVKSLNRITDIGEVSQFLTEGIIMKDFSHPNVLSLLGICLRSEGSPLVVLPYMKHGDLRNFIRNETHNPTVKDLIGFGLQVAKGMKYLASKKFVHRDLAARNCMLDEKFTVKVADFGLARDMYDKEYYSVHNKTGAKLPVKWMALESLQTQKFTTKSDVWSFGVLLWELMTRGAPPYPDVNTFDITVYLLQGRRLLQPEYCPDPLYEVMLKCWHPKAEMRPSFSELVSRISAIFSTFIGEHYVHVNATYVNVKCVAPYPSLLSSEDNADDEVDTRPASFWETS

| Structure (SMILES) | GI50 [3] | half-life [5] | remaining at 0.5 h [7] | GI50 (HCT-15) | GI50 (SW-620 [10]) | GI50 (CAPAN-1) | Tmax [11] | GI50 (KM12C [14]) | GI50 (SW480) | Vd [17] | inhibition in vivo at 30 mg/kg (SW-620 [18]) | GI50 (MIA PaCa-2) | inhibition in vivo at 10 mg/kg [20] | half-life [22] | GI50 (LS-411N) | GI50 (SW1417) | GI50 (PANC-03-27) | inhibition in vivo at 30 mg/kg (T84) | Cmax [24] | GI50 [25] | further results |
| --- | --- | --- | --- | --- | --- | --- | --- | --- | --- | --- | --- | --- | --- | --- | --- | --- | --- | --- | --- | --- | --- |
| CCOc1ccn(-c2ccc(F)cc2)c(=O)c1C(=O)Nc1ccc(Oc2ccnc3cc(-c4ccc(CN5CCOCC5)cn4)sc23)c(F)c1 | 0.45 µM | 3.28 h | 69% | 0.29 µM | 0.32 µM | 0.55 µM | 1 h | 0.007 µM | 0.34 µM | 2.25 L/kg | 79.8% | 0.63 µM | 74.9% | 3.1 h | 1.01 µM | 0.32 µM | 7.34 µM | 88.3% | 2020 ng/mL | 0.55 µM | CL ([1]; iv, 1 mg/kg, 24 h): 11.5 mL/min/kg; inhibition (NIH3T3 [2]): Active; inhibition in vivo at 1 mg/kg (KM12C [4]): 29.4%; inhibition in vivo at 10 mg/kg (KM12C [6]): 73%; AUC ([8]; 24 h): 12600 ng·h/mL; inhibition (NIH3T3 [9]): Active; Activity (HT-29 [12]): 51.3%; AUC ([13]; 24 h): 7240 ng·h/mL; inhibition (NIH3T3 [15]): Active; inhibition in vivo at 3 mg/kg (KM12C [16]): 35%; Activity (KM12C [19]): 41.9%; F ([21]; po, 5 mg/kg, 24 h): 87.01%; inhibition in vivo at 30 mg/kg (KM12C [23]): 85.2%; GI50 (PANC-1): 2.4 µM; GI50 (ASPC1): 0.46 µM |
| CCOc1ccn(-c2ccc(F)cc2)c(=O)c1C(=O)Nc1ccc(Oc2ccnc(N)c2Cl)c(F)c1 [BMS-777607] | > 10 µM |  |  | 5 µM | 0.86 µM | 9.02 µM |  | 0.133 µM | > 10 µM |  | 41.6% | > 10 µM | 1.5% |  | > 10 µM | > 10 µM | > 10 µM | 46.9% |  | > 10 µM | GI50 (HT-29 [26]): > 10 µM; GI50 (PANC-1): > 10 µM; GI50 (ASPC1): > 10 µM |
| CCOc1ccn(-c2ccc(F)cc2)c(=O)c1C(=O)Nc1ccc(Oc2ccnc3cc(-c4cn(C)cn4)sc23)c(F)c1 |  | 3.03 h | 49% |  | 0.81 µM |  | 2.67 h | 0.027 µM |  | 0.64 L/kg |  |  |  | 3.79 h |  |  |  |  | 810 ng/mL |  | clearance ([1]; Sprague-Dawley): 3.83 mL/min/kg; GI50 (HT-29 [26]): 0.57 µM; IC50 [27]: 0.009 µM; AUC(0-inf) ([8]; Sprague-Dawley): 6670 ng·h/mL; AUC(0-inf) ([13]; Sprague-Dawley): 4370 ng·h/mL; bioavailability ([21]; Sprague-Dawley): 30.5%; IC50 [28]: 0.004 µM; IC50 [29]: 0.00041 µM |
